For this data set, the system named is crocidolite-induced mesothelioma in MexTAg299 transgenic mice. The experiment in a line: Effect of CM on asbestos-induced mesothelioma in MexTAg299 mice (Example 2). The note with it: mouse, in vivo. The method, then:
MexTAg299 transgenic mice are suitable for testing asbestos-induced mesothelioma with 100% incidence. MexTAg mice exposed to asbestos develop cancer that faithfully replicates key features of the pathogenesis of human mesothelioma.
Controls were normal saline (0.9%) or CM at 90 mg/kg (3 mice each).

As for clinoptilolite [CM], the “Mesothelioma (number of mice)” value amounted to 0.

Values taken from patent US10398727B2, “Methods for the treatment and prevention of asbestos-related diseases” (University of Technology, Sydney, priority 2014, dated 2019).
